Test results from patent US9499538B2, “Estrogen receptor modulators and uses thereof” (Seragon Pharmaceuticals, Inc., priority 2012, dated 2016).

Legend:
MCF-7 cells = assay: Breast Cancer Cell Viability Assays (MCF-7, CellTiter-Glo); type: cell-based; conditions: 5 days' compound exposure; for IC50: Homo sapiens, MCF7, 120 h
Outline: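 Percent viability, background-subtracted against untreated wells, was taken from CellTiter-Glo luminescence after 5 days' exposure of MCF-7 cells. Compounds were tested at eleven semilog concentrations, final 0.3–0.000003 μM, in RPMI containing 10% FBS.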

ER-α in MCF-7 cells = target: T1, ER-α in MCF-7 cells (Homo sapiens, UniProt P03372); assay: Breast Cancer Cell ER-α In Cell Western Assay (SP1); type: cell-based; conditions: 4 or 24 hr post compound addition; for Emax: MCF7, SP1 antibody, read-out: ER-α In Cell Western Assay (SP1) Max Response; for DC50: SP1 antibody, read-out: ER-α In Cell Western Assay (SP1) IC50
T1 construct: endogenous in cells; host or cells: MCF-7
T1 sequence (P03372 1-595): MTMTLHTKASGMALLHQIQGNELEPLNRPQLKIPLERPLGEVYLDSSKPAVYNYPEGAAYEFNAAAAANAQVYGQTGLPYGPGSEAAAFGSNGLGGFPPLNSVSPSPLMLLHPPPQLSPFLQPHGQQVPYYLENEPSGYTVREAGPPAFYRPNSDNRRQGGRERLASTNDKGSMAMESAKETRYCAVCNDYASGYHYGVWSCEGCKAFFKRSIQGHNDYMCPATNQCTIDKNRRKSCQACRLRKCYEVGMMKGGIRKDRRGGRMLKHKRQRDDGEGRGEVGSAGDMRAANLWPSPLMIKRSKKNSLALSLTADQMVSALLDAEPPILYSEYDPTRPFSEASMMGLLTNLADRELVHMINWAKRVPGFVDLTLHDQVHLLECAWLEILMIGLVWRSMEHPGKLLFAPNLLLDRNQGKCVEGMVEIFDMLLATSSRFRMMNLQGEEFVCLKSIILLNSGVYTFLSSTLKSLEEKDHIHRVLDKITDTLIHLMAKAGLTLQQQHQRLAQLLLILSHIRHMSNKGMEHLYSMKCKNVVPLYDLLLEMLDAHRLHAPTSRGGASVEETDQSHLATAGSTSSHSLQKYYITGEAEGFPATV
Outline: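 ER-α levels quantified by in-cell western: SP1 signal normalised to DRAQ5 DNA stain, relative to untreated cells (% ER). Compounds at 0.3–0.000003 μM final, 11-point semilog series, 4 or 24 h exposure of MCF-7 cells grown in charcoal-stripped serum.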

| IC50 (MCF-7 cells) | Emax (ER-α in MCF-7 cells) | DC50 (ER-α in MCF-7 cells) | Compound | MCF7 Viability Assay Max Response (MCF-7 cells) |
| --- | --- | --- | --- | --- |
| ≤ 100 nM | ≥ 40% | ≤ 100 nM | CC/C(=C(/c1ccc(/C=C/C(=O)O)cc1)c1ccc2[nH]nc(F)c2c1)c1ccc(C#N)cc1F [Example 104, (E)-3-(4-((E)-2-(4-Cyano-2-fluorophenyl)-1-(3-fluoro-1H-indazol-5-yl)but-1-en-1-yl)phenyl)acrylic acid] | ++ (++ = a single % value ≧ 40%) |
| ≤ 100 nM | ≥ 40% | ≤ 100 nM | CC/C(=C(/c1ccc(/C=C/C(=O)O)cc1)c1ccc2c(cnn2CCO)c1)c1ccc(F)cc1Cl [Example 199, (E)-3-(4-((E)-2-(2-Chloro-4-fluorophenyl)-1-(1-(2-hydroxyethyl)-1H-indazol-5-yl)but-1-en-1-yl)phenyl)acrylic acid] | ++ (++ = a single % value ≧ 40%) |
| ≤ 100 nM | ≥ 40% | ≤ 100 nM | COc1ccc(/C(=C(\c2ccc(/C=C/C(=O)O)cc2)c2ccc3scnc3c2)C2CCC2)cn1 [Example 93, (E)-3-(4-((E)-1-(Benzo[d]thiazol-5-yl)-2-cyclobutyl-2-(6-methoxypyridin-3-yl)vinyl)phenyl)acrylic acid] | ++ (++ = a single % value ≧ 40%) |
| ≤ 100 nM | ≥ 40% | ≤ 100 nM | O=C(O)/C=C/c1ccc(/C(=C(\c2ccccc2)C2CCC2)c2ccc3c(c2)CNC3=O)cc1 [Example 4, (E)-3-(4-((E)-2-Cyclobutyl-1-(1-oxoisoindolin-5-yl)-2-phenylvinyl)phenyl)acrylic acid] | ++ (++ = a single % value ≧ 40%) |
| ≤ 100 nM | ≥ 40% | ≤ 100 nM | N#Cc1ccc(/C(=C(\c2ccc(/C=C/C(=O)O)cc2)c2ccc3[nH]nc(F)c3c2)C2CCC2)c(C#N)c1 [Example 62, (E)-3-(4-((E)-2-Cyclobutyl-2-(2,4-dicyanophenyl)-1-(3-fluoro-1H-indazol-5-yl)vinyl)phenyl)acrylic acid] | ++ (++ = a single % value ≧ 40%) |
| ≤ 100 nM | ≥ 40% | ≤ 100 nM | O=C(O)/C=C/c1ccc(/C(=C(\c2ccccc2Cl)C2CCC2)c2ccc3scnc3c2)cc1 [Example 234, (E)-3-(4-((E)-1-(Benzo[d]thiazol-5-yl)-2-(2-chlorophenyl)-2-cyclobutylvinyl)phenyl)acrylic acid] | ++ (++ = a single % value ≧ 40%) |
| ≤ 100 nM | ≥ 40% | ≤ 100 nM | CS(=O)(=O)c1ccc(/C(=C(\c2ccc(/C=C/C(=O)O)cc2)c2ccc3[nH]nc(F)c3c2)C2CCC2)c(F)c1 [Example 51, (E)-3-(4-((E)-2-Cyclobutyl-1-(3-fluoro-1H-indazol-5-yl)-2-(2-fluoro-4-(methylsulfonyl)phenyl)vinyl)phenyl)acrylic acid] | ++ (++ = a single % value ≧ 40%) |
| ≤ 100 nM | ≥ 40% | ≤ 100 nM | N#Cc1cnccc1/C(=C(\c1ccc(/C=C/C(=O)O)cc1)c1ccc2[nH]nc(F)c2c1)C1CCC1 [Example 74, (E)-3-(4-((E)-2-(3-Cyanopyridin-4-yl)-2-cyclobutyl-1-(3-fluoro-1H-indazol-5-yl)vinyl)phenyl)acrylic acid] | ++ (++ = a single % value ≧ 40%) |
| ≤ 100 nM | ≥ 40% | ≤ 100 nM | CC/C(=C(/c1ccc(/C=C/C(=O)O)cc1)c1ccc2[nH]nc(F)c2c1)c1ccc(F)cc1C#N [Example 102, (E)-3-(4-((E)-2-(2-Cyano-4-fluorophenyl)-1-(3-fluoro-1H-indazol-5-yl)but-1-en-1-yl)phenyl)acrylic acid] | ++ (++ = a single % value ≧ 40%) |
| ≤ 100 nM | ≥ 40% | ≤ 100 nM | O=C(O)/C=C/c1ccc(/C(=C(\c2ccccc2)C2CCC2)c2ccc3[nH]nc(F)c3c2)c(Cl)c1 [Example 166, (E)-3-(3-Chloro-4-((Z)-2-cyclobutyl-1-(3-fluoro-1H-indazol-5-yl)-2-phenylvinyl)phenyl)acrylic acid] | ++ (++ = a single % value ≧ 40%) |
| ≤ 100 nM | ≥ 40% | ≤ 100 nM | N#Cc1ccc(/C(=C(\c2ccc(/C=C/C(=O)O)cc2)c2ccc3[nH]nc(F)c3c2)C2CCC2)c(Cl)c1 [Example 40, (E)-3-(4-((E)-2-(2-Chloro-4-cyanophenyl)-2-cyclobutyl-1-(3-fluoro-1H-indazol-5-yl)vinyl)phenyl)acrylic acid] | ++ (++ = a single % value ≧ 40%) |
| ≤ 100 nM | ≥ 40% | ≤ 100 nM | Fc1n[nH]c2ccc(/C(=C(/c3ccccc3)C3CCC3)c3ccc(/C=C/c4cn[nH]c4)cc3)cc12 [Example 206, 5-((E)-1-(4-((E)-2-(1H-Pyrazol-4-yl)vinyl)phenyl)-2-cyclobutyl-2-phenylvinyl)-3-fluoro-1H-indazole] | + (+ = a single % value < 40%) |
| > 100 nM | ≥ 40% | ≤ 100 nM | CC/C(=C(/c1ccc(/C=C/C(=O)O)cc1)c1ccc2nn(CCO)cc2c1)c1ccc(F)cc1Cl [Example 200, (E)-3-(4-((E)-2-(2-Chloro-4-fluorophenyl)-1-(2-(2-hydroxyethyl)-2H-indazol-5-yl)but-1-en-1-yl)phenyl)acrylic acid] | ++ (++ = a single % value ≧ 40%) |
| ≤ 100 nM | ≥ 40% | ≤ 100 nM | O=C(O)/C=C/c1ccc(/C(=C(\c2ccc(F)cc2Cl)C2CCC2)c2cc3ccccc3o2)cc1 [Example 75, (E)-3-(4-((E)-1-(Benzofuran-2-yl)-2-(2-chloro-4-fluorophenyl)-2-cyclobutylvinyl)phenyl)acrylic acid] | ++ (++ = a single % value ≧ 40%) |
| ≤ 100 nM | ≥ 40% | ≤ 100 nM | O=C(O)/C=C/c1ccc(/C(=C(\c2ccc(F)cc2Cl)C2CCC2)c2ccc3[nH]ncc3n2)cc1 [Example 34, (E)-3-(4-((E)-2-(2-Chloro-4-fluorophenyl)-2-cyclobutyl-1-(1H-pyrazolo[4,3-b]pyridin-5-yl)vinyl)phenyl)acrylic acid] | ++ (++ = a single % value ≧ 40%) |
| ≤ 100 nM | ≥ 40% | ≤ 100 nM | N#Cc1c(/C(=C(/c2ccccc2)C2CCC2)c2ccc(/C=C/C(=O)O)cc2)ccc2[nH]ncc12 [Example 1, (E)-3-(4-((E)-1-(4-Cyano-1H-indazol-5-yl)-2-cyclobutyl-2-phenylvinyl)phenyl)acrylic acid] | ++ (++ = a single % value ≧ 40%) |
| ≤ 100 nM | ≥ 40% | ≤ 100 nM | Cc1cccnc1/C(=C(\c1ccc(/C=C/C(=O)O)cc1)c1ccc2[nH]nc(F)c2c1)C1CCC1 [Example 144, (E)-3-(4-((E)-2-Cyclobutyl-1-(3-fluoro-1H-indazol-5-yl)-2-(3-methylpyridin-2-yl)vinyl)phenyl)acrylic acid] | ++ (++ = a single % value ≧ 40%) |
| ≤ 100 nM | ≥ 40% | ≤ 100 nM | COc1ccc(/C(=C(\c2ccc(/C=C/C(=O)O)c(F)c2)c2ccc3[nH]nc(F)c3c2)C2CCC2)c(Cl)c1 [Example 256, (E)-3-(4-((Z)-2-(2-Chloro-4-methoxyphenyl)-2-cyclobutyl-1-(3-fluoro-1H-indazol-5-yl)vinyl)-2-fluorophenyl)acrylic acid] | ++ (++ = a single % value ≧ 40%) |
| ≤ 100 nM | ≥ 40% | ≤ 100 nM | O=C(O)/C=C/c1ccc(/C(=C(\c2ncccc2F)C2CCC2)c2ccc3[nH]nc(F)c3c2)cc1 [Example 142, (E)-3-(4-((E)-2-Cyclobutyl-1-(3-fluoro-1H-indazol-5-yl)-2-(3-fluoropyridin-2-yl)vinyl)phenyl)acrylic acid] | ++ (++ = a single % value ≧ 40%) |
| ≤ 100 nM | ≥ 40% | ≤ 100 nM | CC/C(=C(/c1ccc(/C=C/C(=O)O)cc1)c1ccc2[nH]nc(F)c2c1)c1ccc(Oc2cnc(S(C)(=O)=O)cn2)cc1 [Example 59, (E)-3-(4-((E)-1-(3-Fluoro-1H-indazol-5-yl)-2-(4-((5-(methylsulfonyl)pyrazin-2-yl)oxy)phenyl)but-1-en-1-yl)phenyl)acrylic acid] | ++ (++ = a single % value ≧ 40%) |
